In patent US20140112878A1, “Tyrosinase Inhibitor” (priority 2012, published 2014):

How the values were obtained:
[1] = tested on: Normal human neonatal epidermal melanocytes (NHEMs); assay: Alamar blue cell respiration activity (cell toxicity); format: cell-based; conditions: for Alamar blue (cell toxicity) AVE: cultured NHEMs
Description: (§1) Medium 254 containing a PMA-free growth supplement (HMGS) was used as a medium.
(§2) After cultivating for 3 days, Endotheline-1 (ET-1), SCF, α-MSH, Histamine, and PGE2, each prepared to be the final concentration of 1 nM in the medium, were added. The same test compounds used in Example 1 were also added so as to reach the final concentration. The mixture was cultured at 37° C. for 3 days, in the presence of 5% CO2. The same amount of DMSO was added as a control.
After the completion of the cultivation, 20 L/well of alamar blue reagent (Invitrogen Corporation) was added. After incubating for 2 to 3 hours, the fluorescence intensity of the medium was measured to monitor the cell respiration activity. Then, the cells were washed with PBS, and 20 μL/well of extraction buffer (0.1 M Tris-HCL (pH 7.2), 1% NP-40, 0.01% SDS, 100 μM PMSF, 1 μg/m aprotinin) and 20 μL/well of Assay Buffer (4% dimethylformamide, 100 mM Sodium phosphate-buffered (pH 7.1)) were added. The cells were solubilized at 4° C. for 3 hours, and DOPA oxidase activity was measured.

[2] = biological target: T1, human tyrosinase (neonatal epidermal melanocyte extract) (Homo sapiens, UniProt P14679); assay: DOPA oxidase activity (MBTH method) in cell extract; format: biochemical; conditions: for DOPA oxidase activity, value relative to that of the control: N=3; for DOPA oxidase activity suppressive effect (in words): IPMP 0.00075 to 0.015 w/v %
T1 construct: host or cells: normal human neonatal epidermal melanocytes (NHEMs), detergent/ultrasonication lysate supernatant
T1 sequence (P14679 19-529): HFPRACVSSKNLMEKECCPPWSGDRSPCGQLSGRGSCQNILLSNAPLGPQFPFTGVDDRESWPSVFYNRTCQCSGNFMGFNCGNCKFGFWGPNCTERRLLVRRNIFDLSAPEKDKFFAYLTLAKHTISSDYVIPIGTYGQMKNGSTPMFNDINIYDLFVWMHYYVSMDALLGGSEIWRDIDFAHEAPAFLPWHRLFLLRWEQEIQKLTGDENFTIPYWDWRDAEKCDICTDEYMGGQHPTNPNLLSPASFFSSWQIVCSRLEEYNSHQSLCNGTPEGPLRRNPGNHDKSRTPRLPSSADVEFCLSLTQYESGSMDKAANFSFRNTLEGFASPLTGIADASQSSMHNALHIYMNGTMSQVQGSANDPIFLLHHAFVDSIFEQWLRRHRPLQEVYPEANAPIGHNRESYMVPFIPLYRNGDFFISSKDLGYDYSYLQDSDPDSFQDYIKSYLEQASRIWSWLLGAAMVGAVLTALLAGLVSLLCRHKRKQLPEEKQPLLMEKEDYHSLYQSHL
Description: The cells were then treated with ultrasonication, and were centrifuged at 15000 r.p.m. for 10 minutes, and the supernatant was obtained.
Tyrosinase activity was measured using the cell extract mentioned above. […] Then, 20 μL of the following test compounds were added to the wells so that the mixture reaches the final concentration shown in Table 1.

[3] = biological target: T2, tyrosinase (DOPA oxidase activity) in normal human neonatal epidermal melanocytes (NHEMs) (Homo sapiens, UniProt P14679); assay: DOPA oxidase activity in cultured normal human neonatal epidermal melanocytes
T2 sequence (P14679 19-529): T1 sequence (P14679 19-529)
Description: as §1, §2
After the completion of the cultivation, 20 L/well of alamar blue reagent (Invitrogen Corporation) was added. After incubating for 2 to 3 hours, the fluorescence intensity of the medium was measured to monitor the cell respiration activity. Then, the cells were washed with PBS, and 20 μL/well of extraction buffer (0.1 M Tris-HCL (pH 7.2), 1% NP-40, 0.01% SDS, 100 μM PMSF, 1 μg/m aprotinin) and 20 μL/well of Assay Buffer (4% dimethylformamide, 100 mM Sodium phosphate-buffered (pH 7.1)) were added. The cells were solubilized at 4° C. for 3 hours, and DOPA oxidase activity was measured. DOPA oxidase activity was measured according to the following method, with reference to the MBTH method (Winder A. et al., 1991, Eur. J. Biochem. 198:317-326).
80 μL of the above-mentioned Assay Buffer, 60 μL of 20.7 mM MBTH (3-methyl-2-benzothiazolinone hydrazone) solution, and 40 μL of 5 mM L-DOPA (L-dihydroxyphenylalanine) solution as a substrate, were added to each well of solubilized cell solution, and the mixture was allowed for reaction at 37° C. for 30 to 60 minutes. Then the color reaction was measured based on absorbance at 490 nm (N=3). The measurements are expressed as values relative to that of the control.

[4] = tested on: mouse melanoma B-16 cells; conditions: reported in JP-A-9-249544; cited from earlier work
[5] = tested on: mushroom-derived tyrosinase; conditions: reported in JP-A-9-249544; cited from earlier work
[6] = 0.67 μM (0.00001 w/v %), Example 3
[7] = 10 μM (IPMP 0.00015 w/v %), 3 days, Example 2
[8] = 100 μM (IPMP 0.0015 w/v %), 3 days, Example 2
[9] = 167.5 μM (0.0025 w/v %), Example 3

SMILES	Alamar blue (cell toxicity) AVE [1, 7]	Alamar blue (cell toxicity) AVE [1, 8]	DOPA oxidase activity, value relative to that of the control ([2]; 50 μM (IPMP 0.00075%))	DOPA oxidase activity, value relative to that of the control ([2]; 100 μM (IPMP […]))	DOPA oxidase activity, value relative to that of the control ([2]; 500 μM (IPMP 0.0075%))	DOPA oxidase activity, value relative to that of the control ([2]; 1000 μM (IPMP […]))	DOPA oxidase activity AVE, relative to control [3, 7]	DOPA oxidase activity AVE, relative to control [3, 8]	DOPA oxidase activity suppressive effect (in words) [2]	DOPA oxidase activity suppressive effect (in words) ([3]; Example 2)	Suppressive effect on melanin production (in words) [4]	Inhibitory activity on mushroom-derived tyrosinase (in words) [5]	also measured
Cc1cc(O)ccc1C(C)C [IPMP, isopropylmethylphenol]	94.1	127	83.1 ± 3.9	62.9 ± 3.5	32.8 ± 3.7	19.8 ± 1.2	74.8	50.6					Alamar blue (cell toxicity) AVE [1, 6]: 84.9; Alamar blue (cell toxicity) AVE ([1]; 6.7 μM (6.0001 w/v %), Example 3): 85.4; Effect on cell growth (in words) ([1]; 0.00001 to 0.0025 w/v %, Example 3): did not affect cell growth; Alamar blue (cell toxicity) AVE ([1]; 67 μM (0.001 w/v %), Example 3): 78.9; Alamar blue (cell toxicity) AVE [1, 9]: 77.0; Effect on cell growth (alamar blue method, in words) ([1]; at the concentration which showed DOPA oxidase activity suppressive effect, Example 2): did not affect cell growth; DOPA oxidase activity AVE, relative to control [3, 6]: 73.7; DOPA oxidase activity AVE, relative to control ([3]; 6.7 μM, Example 3): 56.5; DOPA oxidase activity AVE, relative to control ([3]; 67 μM (0.001 w/v %), Example 3): 33.9; DOPA oxidase activity AVE, relative to control [3, 9]: 25.6
O=c1cc(CO)occ1O [Kojic acid]	118.3	114.4											
Cc1ccc(C(C)C)c(O)c1 [compound 1, thymol]	84.9	104.4	103.7 ± 0.9	93.8 ± 1.6	104.4 ± 0.8	105.4 ± 0.5	98.6	95	did not show DOPA oxidase activity suppressive effect	did not show DOPA oxidase activity suppressive effect	exhibit suppressive effect on melanin production	exhibit inhibitory activity on mushroom-derived tyrosinase	
Cc1ccc(C(C)C)cc1O [compound 2, carvacrol]	94.2	115.2	102.1 ± 0.5	96.9 ± 1.8	99.6 ± 1.8	97.8 ± 1.9	99.3	96.3	did not show DOPA oxidase activity suppressive effect	did not show DOPA oxidase activity suppressive effect	exhibit suppressive effect on melanin production	exhibit inhibitory activity on mushroom-derived tyrosinase	
